This note sets out measurements from ChEMBL document CHEMBL4418911, “Methods to identify modulators” (2012).

Active and inactive are the calls of the source. No cut-off for these calls is given here.

For test [1], the target named is T1, Taste receptor type 2 member 16 (Homo sapiens) (UniProt Q9NYV7).
T1 sequence (whole entry): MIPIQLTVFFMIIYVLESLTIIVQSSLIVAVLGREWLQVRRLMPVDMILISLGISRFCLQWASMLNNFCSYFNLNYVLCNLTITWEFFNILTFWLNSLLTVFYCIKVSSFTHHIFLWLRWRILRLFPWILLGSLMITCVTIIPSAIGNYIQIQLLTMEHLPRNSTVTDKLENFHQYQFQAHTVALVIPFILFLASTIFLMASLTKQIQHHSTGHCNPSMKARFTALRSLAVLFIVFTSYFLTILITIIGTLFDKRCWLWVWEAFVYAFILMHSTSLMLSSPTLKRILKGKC
As to the kind of experiment: Activation of full-length human TAS2R16 expressed in HEK293T/Galpha16-gustducin 44 cells assessed as effect on calcium flux by measuring deltaF/F0 ratio at 0.0391 mM in presence of (E)-4-(2,2,3-trimethylcyclopent-3-enyl)but-2-enoic acid by Fluo-4 dye based FLIPR assay. Format: functional, cell-based. In general terms: A change in cytosolic calcium serves as a functional read-out for many receptors and channels.

The target of test [2] is T1, Taste receptor type 2 member 16 (Homo sapiens). The experiment in a line: Activation of full-length human TAS2R16 expressed in HEK293T/Galpha16-gustducin 44 cells assessed as effect on calcium flux by measuring deltaF/F0 ratio at 0.625 mM in presence of (E)-4-(2,2,3-trimethylcyclopent-3-enyl)but-2-enoic acid by Fluo-4 dye based FLIPR assay. The format is functional, cell-based.

The target is the same in test [3]. The experiment in a line: Activation of full-length human TAS2R16 expressed in HEK293T/Galpha16-gustducin 44 cells assessed as effect on calcium flux by measuring deltaF/F0 ratio at 5 mM in presence of (E)-4-(2,2,3-trimethylcyclopent-3-enyl)but-2-enoic acid by Fluo-4 dye based FLIPR assay. Format: functional, cell-based.
The target is the same in test [4]. The experiment in a line: Activation of full-length human TAS2R16 expressed in HEK293T/Galpha16-gustducin 44 cells assessed as effect on calcium flux by measuring deltaF/F0 ratio at 0.3125 mM in presence of (E)-4-(2,2,3-trimethylcyclopent-3-enyl)but-2-enoic acid by Fluo-4 dye based FLIPR assay. Format: functional, cell-based.
Test [5] shares this target. As to the kind of experiment: Activation of full-length human TAS2R16 expressed in HEK293T/Galpha16-gustducin 44 cells assessed as effect on calcium flux by measuring deltaF/F0 ratio at 0.1563 mM in presence of (E)-4-(2,2,3-trimethylcyclopent-3-enyl)but-2-enoic acid by Fluo-4 dye based FLIPR assay. The format is functional, cell-based.
Test [6] has the same target. As to the kind of experiment: Activation of full-length human TAS2R16 expressed in HEK293T/Galpha16-gustducin 44 cells assessed as effect on calcium flux by measuring deltaF/F0 ratio at 0.0781 mM in presence of (E)-4-(2,2,3-trimethylcyclopent-3-enyl)but-2-enoic acid by Fluo-4 dye based FLIPR assay. Format: functional, cell-based.
Test [7] shares this target. As to the kind of experiment: Activation of full-length human TAS2R16 expressed in HEK293T/Galpha16-gustducin 44 cells assessed as effect on calcium flux by measuring deltaF/F0 ratio in presence of 4-(2,2,3-trimethylcyclo-pentyl)butanamide) by Fluo-4 dye based FLIPR assay. The format is functional, cell-based.
Test [8] shares this target. As to the kind of experiment: Activation of full-length human TAS2R16 expressed in HEK293T/Galpha16-gustducin 44 cells assessed as effect on calcium flux by measuring deltaF/F0 ratio at 2.5 mM in presence of (E)-4-(2,2,3-trimethylcyclopent-3-enyl)but-2-enoic acid by Fluo-4 dye based FLIPR assay. The format is functional, cell-based.
Test [9] has the same target. As to the kind of experiment: Activation of full-length human TAS2R16 expressed in HEK293T/Galpha16-gustducin 44 cells assessed as effect on calcium flux by measuring deltaF/F0 ratio at 10 mM in presence of (E)-4-(2,2,3-trimethylcyclopent-3-enyl)but-2-enoic acid by Fluo-4 dye based FLIPR assay. The format is functional, cell-based.
Test [10] addresses T2, Taste receptor type 2 member 31 (Homo sapiens) (UniProt P59538).
T2 sequence (whole entry): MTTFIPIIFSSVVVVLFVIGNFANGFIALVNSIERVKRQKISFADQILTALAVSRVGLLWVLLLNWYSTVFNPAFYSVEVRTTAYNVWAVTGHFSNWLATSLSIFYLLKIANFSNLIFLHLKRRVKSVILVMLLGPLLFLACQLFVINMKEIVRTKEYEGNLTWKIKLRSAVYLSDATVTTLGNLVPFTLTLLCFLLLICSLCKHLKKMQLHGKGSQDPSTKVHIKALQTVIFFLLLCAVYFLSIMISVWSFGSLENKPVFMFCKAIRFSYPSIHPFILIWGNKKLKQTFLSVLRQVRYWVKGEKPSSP
The experiment in a line: Activation of full-length human TAS2R44 expressed in HEK293T/Galpha16-gustducin 44 cells assessed as effect on calcium flux by measuring deltaF/F0 ratio at 6.25 mM in presence of (E)-4-(2,2,3-trimethylcyclopent-3-enyl)but-2-enoic acid by Fluo-4 dye based FLIPR assay (reference value: 0.027 +/- 0.029). Format: functional, cell-based.

The target in test [11] is T2, Taste receptor type 2 member 31 (Homo sapiens). The experiment in a line: Activation of full-length human TAS2R44 expressed in HEK293T/Galpha16-gustducin 44 cells assessed as effect on calcium flux by measuring deltaF/F0 ratio at 25 mM in presence of (E)-4-(2,2,3-trimethylcyclopent-3-enyl)but-2-enoic acid by Fluo-4 dye based FLIPR assay (reference value: 0.110 +/- 0.019). Format: functional, cell-based.

Test [12] addresses T3, Taste receptor type 2 member 31 (Homo sapiens, UniProt P59538).
T3 sequence (P59538 whole entry): T2 sequence (whole entry)
The experiment in a line: Agonist activity at full-length human TAS2R44 expressed in HEK293T/Galpha16-gustducin 44 cells assessed as effect on calcium flux by measuring deltaF/F0 ratio in presence of (E)-4-(2,2,3-trimethylcyclopent-3-enyl)but-2-enoic acid by Fluo-4 dye based FLIPR assay. The format is functional, cell-based.

Test [13] deals with T2, Taste receptor type 2 member 31 (Homo sapiens). The experiment in a line: Activation of full-length human TAS2R44 expressed in HEK293T/Galpha16-gustducin 44 cells assessed as effect on calcium flux by measuring deltaF/F0 ratio at 12.5 mM in presence of (E)-4-(2,2,3-trimethylcyclopent-3-enyl)but-2-enoic acid by Fluo-4 dye based FLIPR assay (reference value: 0.051 +/- 0.004). The format is functional, cell-based.

Test [14] shares this target. As to the kind of experiment: Agonist activity at full-length human TAS2R44 expressed in HEK293T/Galpha16-gustducin 44 cells assessed as effect on calcium flux by measuring deltaF/F0 ratio in presence of 4-(2,2,3-trimethylcyclo-pentyl)butanamide) by Fluo-4 dye based FLIPR assay. Format: functional, cell-based.
Test [15] shares this target. The experiment in a line: Activation of full-length human TAS2R44 expressed in HEK293T/Galpha16-gustducin 44 cells assessed as effect on calcium flux by measuring deltaF/F0 ratio at 0.3906 mM in presence of (E)-4-(2,2,3-trimethylcyclopent-3-enyl)but-2-enoic acid by Fluo-4 dye based FLIPR assay (reference value: 0.046 +/- 0.048). Format: functional, cell-based.
Another test concerns HEK-293T. As to the kind of experiment: Effect on calcium flux in HEK293T/Galpha16-gustducin 44 cells assessed as deltaF/F0 ratio at 100 mM in presence of (E)-4-(2,2,3-trimethylcyclopent-3-enyl)but-2-enoic acid, by Fluo-4 dye based FLIPR assay. Format: functional, Homo sapiens.
The target in test [16] is T2, Taste receptor type 2 member 31 (Homo sapiens). As to the kind of experiment: Activation of full-length human TAS2R44 expressed in HEK293T/Galpha16-gustducin 44 cells assessed as effect on calcium flux by measuring deltaF/F0 ratio at 3.125 mM in presence of (E)-4-(2,2,3-trimethylcyclopent-3-enyl)but-2-enoic acid by Fluo-4 dye based FLIPR assay (reference value: 0.030 +/- 0.042). The format is functional, cell-based.

The species named for test [17] is Homo sapiens. As to the kind of experiment: Induction of bitter sensitivity in bitter sensitive human panelists tasting solution containing 3 mM compound in presence of 13 ppm (E)-4-(2,2,3-trimethylcyclopent-3-enyl)but-2-enoic acid. The format is functional, organism-based.
In test [18] the target is T4, Taste receptor type 2 member 1 (Homo sapiens) (UniProt Q9NYW7).
T4 sequence (whole entry): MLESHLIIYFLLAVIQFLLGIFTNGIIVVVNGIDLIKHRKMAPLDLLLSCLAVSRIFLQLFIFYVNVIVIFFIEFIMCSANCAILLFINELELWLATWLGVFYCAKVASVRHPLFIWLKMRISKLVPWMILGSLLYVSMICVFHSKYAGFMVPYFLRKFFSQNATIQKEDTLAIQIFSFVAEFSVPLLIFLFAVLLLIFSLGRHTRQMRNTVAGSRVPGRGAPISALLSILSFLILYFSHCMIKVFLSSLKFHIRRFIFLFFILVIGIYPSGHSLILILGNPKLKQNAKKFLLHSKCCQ
The experiment in a line: Activation of full-length human TAS2R1 expressed in HEK293T/Galpha16-gustducin 44 cells assessed as effect on calcium flux by measuring deltaF/F0 ratio by Fluo-4 dye based FLIPR assay. Format: functional, cell-based.

Test [19] addresses T2, Taste receptor type 2 member 31 (Homo sapiens). As to the kind of experiment: Activation of full-length human TAS2R44 expressed in HEK293T/Galpha16-gustducin 44 cells assessed as effect on calcium flux by measuring deltaF/F0 ratio at 50 mM in presence of (E)-4-(2,2,3-trimethylcyclopent-3-enyl)but-2-enoic acid by Fluo-4 dye based FLIPR assay (reference value: 0.192 +/- 0.011). The format is functional, cell-based.

Test [20] shares this target. As to the kind of experiment: Activation of full-length human TAS2R44 expressed in HEK293T/Galpha16-gustducin 44 cells assessed as effect on calcium flux by measuring deltaF/F0 ratio at 0.7813 mM in presence of (E)-4-(2,2,3-trimethylcyclopent-3-enyl)but-2-enoic acid by Fluo-4 dye based FLIPR assay (reference value: 0.038 +/- 0.042). The format is functional, cell-based.

Test [21] is filed under the species Homo sapiens. The experiment in a line: Induction of bitter sensitivity in bitter sensitive human panelists tasting solution containing 3 mM compound in absence of 13 ppm (E)-4-(2,2,3-trimethylcyclopent-3-enyl)but-2-enoic acid. The format is functional, organism-based.
Test [22] deals with T5, Taste receptor type 2 member 46 (Homo sapiens) (UniProt P59540).
T5 sequence (whole entry): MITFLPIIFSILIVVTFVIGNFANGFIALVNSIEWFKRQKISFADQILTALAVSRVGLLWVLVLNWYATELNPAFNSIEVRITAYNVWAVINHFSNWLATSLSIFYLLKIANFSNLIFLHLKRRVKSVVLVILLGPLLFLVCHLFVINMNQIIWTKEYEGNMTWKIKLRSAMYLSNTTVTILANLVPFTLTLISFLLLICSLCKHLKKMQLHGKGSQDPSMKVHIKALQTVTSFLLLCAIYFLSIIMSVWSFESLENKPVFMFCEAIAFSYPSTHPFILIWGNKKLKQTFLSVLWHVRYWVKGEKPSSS
As to the kind of experiment: Activation of full-length human TAS2R46 expressed in HEK293T/Galpha16-gustducin 44 cells assessed as effect on calcium flux by measuring deltaF/F0 ratio by Fluo-4 dye based FLIPR assay. The format is functional, cell-based.

Test [23] has as its target T6, Taste receptor type 2 member 10 (Homo sapiens) (UniProt Q9NYW0).
T6 sequence (whole entry): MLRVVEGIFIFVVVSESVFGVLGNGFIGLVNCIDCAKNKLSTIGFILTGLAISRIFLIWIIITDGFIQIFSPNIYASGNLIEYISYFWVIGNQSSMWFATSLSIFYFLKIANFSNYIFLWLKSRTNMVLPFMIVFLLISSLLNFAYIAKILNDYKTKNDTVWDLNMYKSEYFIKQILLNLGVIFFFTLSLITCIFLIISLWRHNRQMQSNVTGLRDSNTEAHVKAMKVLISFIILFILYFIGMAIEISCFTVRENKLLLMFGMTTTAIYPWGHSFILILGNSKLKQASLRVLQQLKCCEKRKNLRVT
As to the kind of experiment: Activation of full-length human TAS2R10 expressed in HEK293T/Galpha16-gustducin 44 cells assessed as effect on calcium flux by measuring deltaF/F0 ratio by Fluo-4 dye based FLIPR assay. Format: functional, cell-based.

For `OC[C@H]1O[C@@H](Oc2ccccc2)[C@H](O)[C@@H](O)[C@@H]1O`, the Ratio was -0.013 in [1]; 2.14 in test [2]; 2.65 in test [3]; 1.55 in [4]; 0.702 in [5]; 0.108 in test [6]. Besides, the Ratio was found to be 2.48 in [8] and 2.83 in [9]. For the same compound, the result in [7] was Active.
Consider `OC[C@H]1O[C@H](O[C@]2(CCl)O[C@H](CCl)[C@@H](O)[C@@H]2O)[C@H](O)[C@@H](O)[C@H]1Cl` [SUCRALOSE], for which the Ratio in [10] is 0; in test [11], -0.035; in test [13] it was -0.015; in [15] it was 0.011; in the test on HEK-293T, -0.175; in test [16] it was 0.005. Also, the figures for the Ratio in test [19] and in [20] were -0.025 and 0.01, respectively. Further, in test [12], the EC50 entry was “Not Active”. Further, the outcome (in test [14]; in the test filed under Homo sapiens [21]) was Active. Moreover, the result in the test filed under Homo sapiens [17] was inactive. In addition, the Activity result in test [18], in test [22] and in [23] was “Dose-dependent effect” in each case.
